In a melting point compilation (Tetko et al.; mined from patent text by program, amines drawn as free bases though some values may be those of a salt):

| Compound | melting point [°C] |
| --- | --- |
| N#CC1(C#N)C2C=CC(C2)C1(Cl)Cl (stereo not given) | 161 |
| CCCN1CC(c2ccc(F)cc2)=C(c2ccc(S(N)(=O)=O)cc2)C1=O | 180 to 181 |
| Cc1ccc(-c2csc(-c3ccc4c(c3)C(C)(C)CCC4(C)C)c2)cc1 | 135 to 136 |
| CCCCCCCCCCCCCCCCCCOCCSCCOC(=O)NCc1ccccn1 | 60 to 62 |
| Nc1ncnc2c1c(-c1ccc(Oc3ccccc3)cc1)cn2C1CCOC1 (stereo not given) | 165 to 166 |
| CC(C)Cn1c(=O)n(C)c(=O)c2c(Sc3cccs3)c(C(=O)c3cccnc3)sc21 | 111 to 115 |
| C=CCN1C2CCC3C1CCC2N3C(c1ccc(C(=O)N2CCCC2)cc1)c1cccc(O)c1 (stereo not given) | 140 to 142 |
| S=c1cc(-c2cnccn2)ss1 | 196 |
| Nc1ccc(CS(=O)(=O)CCO)c(CS(=O)(=O)CCO)c1 | 168 to 171 |
| O=S(=O)(Nc1ccccc1OC1CCCCC1)C(F)(F)F | 83 to 85 |
| CN1Cc2c(Br)ncn2-c2ccccc2C1=O | 196 to 198 |
| Cc1c(NC(=O)c2ccc(-c3ccc4c(c3)OCO4)cc2)ccc2cc(CN3CCCC3)cnc12 | 171 to 172 |
| CCN1C(=O)C(C(=O)Nc2ccc(F)cc2)c2cc3c(cc21)C=CCO3 (stereo not given) | 212 to 214 |
| Cc1nnc2n1-c1ccc(Br)cc1C(c1ccccc1F)=NC2NC(=O)OCc1ccccc1 (stereo not given) | 160 to 170 |
| CCNC(=O)c1occc1[Si](C)(C)C | 69 to 72 |
| CC(C)NC(=O)c1coc(CN2C(=O)C3(COc4cc5c(cc43)OCO5)c3ccccc32)n1 (stereo not given) | 182 to 183 |
| O=C1N(Cc2ccccn2)c2cccc(-c3ccoc3)c2C12COc1cc3c(cc12)CCO3 (stereo not given) | 195 to 197 |
| CC(=O)N1CC(=O)N(C)C(=O)N1c1cc(Cl)c(C(C#N)c2ccc(Cl)cc2)c(Cl)c1 (stereo not given) | 178 |
| CC1(C)OCC[C@@H]2[C@H](C(O)CBr)C(=O)N21 (stereo not given in full) | 141 to 142 |
| CCCn1c([N+](=O)[O-])cnc1-c1cnc(N)s1 | 234 to 236 |
| C[C@]1(N2C(=O)c3cccc(Nc4ccc5c(c4)CCC5)c3C2=O)CCC(=O)NC1=O | 200 to 202 |
| O=C(C1CCCCC1)N(CCN1CCN(c2cccc3cccnc23)CC1)c1ccccc1OC(F)(F)F | 142 to 143 |
| O=c1cc(NCCN2CCN(c3ccccc3F)CC2)cn[nH]1 | 103 to 105 |
| O=c1cc(C(F)(F)F)n(-c2c([N+](=O)[O-])cc([N+](=O)[O-])cc2C(F)(F)F)c(=O)[nH]1 | 219 to 220 |
| CSC1=CC2=CN(O)NN2C(SC)=N1 | 275 to 278 |
| CC(=O)NCC1CC(c2ccc(F)c(F)c2)=NO1 (stereo not given) | 136 to 137 |
| CC(C)Cn1c(=O)n(C)c(=O)c2c(Sc3nccs3)c(C(=O)c3ccnc4ccccc34)sc21 | 167 to 168 |
| CC(C)(C)C(=O)C(Cl)C(=O)Nc1cc(OC(=O)c2cc(C(C)(C)C)c(O)c(C(C)(C)C)c2)ccc1Cl (stereo not given) | 185 to 187 |
| CCCN1CCC(c2c(O)cc(O)c3c(=O)cc(-c4ccccc4Cl)oc23)C1CO (stereo not given) | 94 to 96 |
| CC(CO)Nc1c(Br)cnc2cc(Cl)ccc12 (stereo not given) | 145 to 147 |

Now from value to compound:

| melting point [°C] | Compound |
| --- | --- |
| 170 to 172 | CCCCN1CN(C2CC(OC(=O)c3ccccc3C)C(COC(=O)c3ccccc3C)O2)C(=O)NC1=O (stereo not given) |
| 165 to 167 | Clc1ccc(-c2cc(C3CCN(CCCc4ccccc4)CC3)n[nH]2)cc1 |
| 165 to 166 | COc1cccc2c1OC(C(N)=O)(c1ccncc1CC(=O)OCc1ccccc1)C2 (stereo not given) |
| 116 to 118 | CCOC(=O)Nc1ccc(OC23CC4CC(CC(C4)C2)C3)cc1 |
| 85 to 87.5 | O=C(OCc1cc(OCCCBr)cc(OCCCBr)c1)c1ccccc1 |
| 86 to 88 | CCc1c(C(=O)OC)c(C(=O)OC)c2n1-c1ccccc1C2 |
| 88 to 90 | N=C(N)c1ccc(C(=O)N[C@@H](Cc2ccc(O)cc2)C(=O)N2CCC(OCC(=O)O)CC2)cc1 |
| 78.6 to 79.5 | O=C(O)CCCCCNC(=O)Cc1ccsc1 |
| 88 to 89 | ClCc1csc(/C=C/c2ccccc2)n1 |
| 129 to 131 | CCOC(=O)c1c(C)nn(-c2ccc(F)cc2)c1N |
| 119 to 121 | CCOC(=O)c1ccc(NC(=O)C(CSC(C)=O)Cc2ccccc2)cc1 (stereo not given) |
| 52 to 54 | O=C(CN1C(=O)CC1Sc1ccc(Cl)cc1)NCCCCCCc1ccccc1 (stereo not given) |
| 172 to 174 | Cc1nc(-n2ccc(OCCC3CC3)cc2=O)sc1C(=O)NCc1ccccc1 |
| 60 to 61 | COC(=O)CCCCCc1nn(-c2ccc([N+](=O)[O-])cc2)c2c1CCCC2 |
| 201 to 203 | O=c1cc(-c2ccncc2)nc2n(CCCc3c[nH]c4ccccc34)ccn12 |
| 130 | COC(=O)C(N)(CF)Cc1ccc(O)cc1 (stereo not given) |
| 138 to 140 | COc1cc(N)c(Cl)cc1C(=O)NCC1CCN(CCCCCNC(=O)c2ccccc2)CC1 |
| 214 to 216 | COc1nc2ccccc2c2c1ncn2CC(O)CO (stereo not given) |
| 135 to 137 | COc1ccc(C)cc1NC(=O)Nc1ccc(C2=CCN(C(=O)Nc3ccc(OCC(O)CO)cc3C(F)(F)F)CC2)cc1 (stereo not given) |
| 151 to 152 | COc1ccc(-c2c(C(=O)c3ccccc3)c(C)nc3cc(OC)c(OC)cc23)cc1OC |

| melting point [°C] | Compound |
| --- | --- |
| 214 to 216 | COc1ccc(/C(=C/C=C/C(=O)O)c2cccs2)cc1 |
| 189 to 190 | COc1cc(-c2cnc3[nH]cc(C(=O)C(C)C)c3n2)cc(OC)c1OC |
| 108 to 109 | Cc1ccccc1-c1ccc2ccccc2c1C(=O)N(C)C |
| 62 to 66 | COc1ccc2cccc(C#N)c2c1 |
| 171 to 173 | CCOc1ccccc1C(=O)NCCN1CCC(O)(c2ccc(Cl)cc2)CC1 |
| 153 to 156 | O=C(NCc1cccc([N+](=O)[O-])c1)Nc1ccccc1 |
| 104 to 106 | COc1cccc(C2(c3cccc(OC)c3)CC2C=CC(=O)NC(C)CCCc2ccncc2)c1 (single isomer, unassigned) |
| 125 to 131 | COc1cc(OCc2ccccn2)ccc1/C=C/c1cc(/C=C/c2cc([N+](=O)[O-])c3cc[nH]c3c2)[nH]n1 |
| 206 to 207 | Cc1ccc(Cn2c3c(c4cc(OCc5ccccc5)ccc42)C(=O)C(=O)OC3)cc1 |
| 96 to 116 | COc1cccc2c1cc(C)n2Cc1ccccc1 |
| 82 to 84 | COc1ccc(CCOCC(=O)O)cc1 |
| 58 to 60 | C#CCOc1cc2ccccc2cc1COC(=O)C1CC1 |
| 134 to 135 | COC(=O)c1ccc(Cc2cn(C)c3ccc(NC(=O)OC4CCCC4)cc23)c(OC)c1 |
| 32 | CCCCCc1ccc(-c2ccc(Cl)s2)cn1 |
| 149 to 151 | O=C(O)C(Oc1ccc(N2CCCCC2)cc1)c1cccc(Cl)c1 (stereo not given) |
| 88 to 102 | CNC(=O)C(Cc1ccc(OC)cc1)NC(=O)C(C)(CC(C)C)c1cccc(C(F)(F)F)c1S (stereo not given) |
| 120 to 121 | COC(=O)c1ccc2cc(CO)ccc2c1 |
| 246 to 247 | O=c1cc(-c2ccc(O)cc2)oc2ccc(CO)cc12 |
| 146 to 149 | Fc1cc(/C=C/c2nc(COc3ccc(CCCCn4ccnn4)cc3)co2)ccc1Cl |
| 84 to 86 | O=C(CCc1ccccc1)C(Cc1ccccc1)(Cc1ccccc1)C(=O)CCc1ccccc1 |
